From ChEMBL document CHEMBL5352463, “Synthesis of novel glutarimide ligands for the E3 ligase substrate receptor Cereblon (CRBN): Investigation of their binding mode and antiproliferative effects against myeloma cell lines” (Eur J Med Chem, 2023)
Activity calls are given as the source filed them. No cut-off for these calls is given here.

Assays:
MOLP-8 = assay: cells; settings: Homo sapiens, MOLP-8, 48 h
Description: Antiproliferative activity against human MOLP8 cells assessed as inhibition of cell proliferation incubated for 48 hrs by CellTiter Glo luminescence based MTT assay

KMS-12-PE = assay: Antiproliferative activity against human KMS-12-PE cells assessed as inhibition of cell proliferation incubated for 48 hrs by CellTiter Glo luminescence based […]; format: functional
[1] = Cytotoxicity against PBMC (unknown origin) cells assessed as inhibition of cell growth incubated for 48 hrs by CellTiter Glo luminescence based […]; format: toxicity
[2] = target: Protein cereblon (Homo sapiens) (UniProt Q96SW2); assay: Binding affinity to human CRBN thalidomide binding domain by microscale thermophoresis analysis
Sequence of Protein cereblon (Homo sapiens) (Q96SW2 whole entry, the tested form may be a part): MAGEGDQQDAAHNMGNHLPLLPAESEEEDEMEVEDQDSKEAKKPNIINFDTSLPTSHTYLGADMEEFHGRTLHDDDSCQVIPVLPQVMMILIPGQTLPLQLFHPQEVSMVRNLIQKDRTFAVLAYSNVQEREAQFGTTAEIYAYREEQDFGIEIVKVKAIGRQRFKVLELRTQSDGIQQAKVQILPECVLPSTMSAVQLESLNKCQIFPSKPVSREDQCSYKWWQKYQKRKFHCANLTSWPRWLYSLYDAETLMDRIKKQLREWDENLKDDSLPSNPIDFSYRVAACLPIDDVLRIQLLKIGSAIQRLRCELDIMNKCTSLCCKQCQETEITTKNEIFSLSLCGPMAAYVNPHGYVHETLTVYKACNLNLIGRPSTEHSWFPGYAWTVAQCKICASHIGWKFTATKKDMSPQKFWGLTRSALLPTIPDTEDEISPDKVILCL

Row | IC50 (MOLP-8) [µM] | Activity [2] | Compound | IC50 (KMS-12-PE) [µM] | IC50 at 48 h [1] [µM]
1 | 18.3 | – | O=C1CCC(CSc2ccc(Br)cc2)C(=O)N1 (stereo unspecified) | 12.9 | –
2 | 6.81 | – | O=C1CCC(CS(=O)(=O)c2ccc(Cl)cc2)C(=O)N1 (stereo unspecified) | 5.9 | –
3 | 32.3 | – | Nc1ccccc1SCC1CCC(=O)NC1=O (stereo unspecified) | 38.5 | 71.8
4 | > 100 | – | O=C1CCC(CSCc2ccccc2)C(=O)N1 (stereo unspecified) | – | –
5 | > 100 | inactive | O=C1CCC(CSc2ccccc2C(=O)O)C(=O)N1 (stereo unspecified) | > 100 | –
6 | 40 | – | O=C1CCC(CSc2ccccc2)C(=O)N1 (stereo unspecified) | 36.4 | –
7 | 5.52 | – | O=C1CCC(CS(=O)(=O)Cc2ccccc2)C(=O)N1 (stereo unspecified) | 5.17 | –
8 | 44.3 | – | Nc1ccc(SCC2CCC(=O)NC2=O)cc1 (stereo unspecified) | > 90 | > 200
9 | 32 | – | O=C1CCC(CSc2ccc(F)cc2)C(=O)N1 (stereo unspecified) | 29.8 | –
10 | 80.8 | inactive | CN1C(=O)CCC(CSc2ccc(Cl)cc2)C1=O (stereo unspecified) | 45.5 | –
11 | 8.43 | – | O=C1CCC(CSc2ccc([N+](=O)[O-])cc2)C(=O)N1 (stereo unspecified) | – | –
12 | 5.72 | – | O=C1CCC(CS(=O)(=O)c2ccccc2)C(=O)N1 (stereo unspecified) | 6 | –
13 | 85.9 | inactive | CN1C(=O)CCC(CSc2ccccc2)C1=O (stereo unspecified) | > 100 | –
14 | > 100 | – | O=C1CCC(SCc2ccccc2)C(=O)N1 (stereo unspecified) | – | –
15 | 49.5 | – | CC(=O)Nc1cccc(SCC2CCC(=O)NC2=O)c1 (stereo unspecified) | – | –
16 | 12.8 | – | O=C1CCC(CSc2ccccc2[N+](=O)[O-])C(=O)N1 (stereo unspecified) | 13.3 | –
17 | 38.1 | – | Cc1ccc(SCC2CCC(=O)NC2=O)cc1 (stereo unspecified) | 40 | –

Row | IC50 (MOLP-8) [µM] | Activity [2] | Compound | IC50 (KMS-12-PE) [µM] | IC50 at 48 h [1] [µM]
18 | 20.5 | – | O=C1CCC(CSc2ccc(Cl)cc2)C(=O)N1 (stereo unspecified) | 16.2 | –
19 | 19.8 | – | COC(=O)c1ccccc1SCC1CCC(=O)NC1=O (stereo unspecified) | 32.6 | –
20 | 21 | – | Cc1cc(C)c(SCC2CCC(=O)NC2=O)c(C)c1 (stereo unspecified) | 23.1 | –
21 | 6.27 | – | COc1ccc(CS(=O)(=O)CC2CCC(=O)NC2=O)cc1 (stereo unspecified) | 5.88 | –
22 | 41.2 | – | Nc1cccc(SCC2CCC(=O)NC2=O)c1 (stereo unspecified) | > 90 | > 200
23 | 11.9 | – | Cc1ccnc(SCC2CCC(=O)NC2=O)n1 (stereo unspecified) | 36.8 | –
24 | 15.9 | – | O=C1CCC(CSc2cccc([N+](=O)[O-])c2)C(=O)N1 (stereo unspecified) | 13.6 | –
25 | > 100 | – | Cn1cnnc1SCC1CCC(=O)NC1=O (stereo unspecified) | > 100 | –
26 | 27.4 | – | CC(=O)Nc1ccccc1SCC1CCC(=O)NC1=O (stereo unspecified) | – | –
27 | 38.3 | – | CC(=O)Nc1ccc(SCC2CCC(=O)NC2=O)cc1 (stereo unspecified) | – | –
28 | > 75 | – | O=C1CCC(N2C(=O)c3ccccc3C2=O)C(=O)N1 (stereo unspecified) [THALIDOMIDE] | > 75 | –
29 | 27.4 | – | O=C1CCC(CSc2ccccn2)C(=O)N1 (stereo unspecified) | 13.3 | –
30 | 5.3 | – | Cc1ccc(S(=O)(=O)CC2CCC(=O)NC2=O)cc1 (stereo unspecified) | 6.12 | –
31 | 73.2 | – | COc1ccc(CSCC2CCC(=O)NC2=O)cc1 (stereo unspecified) | > 100 | –
32 | 23.9 | – | O=C1CCC(CSc2ncccn2)C(=O)N1 (stereo unspecified) | 36.7 | –
33 | 5.8 | – | O=C1CCC(CS(=O)(=O)c2ccc(F)cc2)C(=O)N1 (stereo unspecified) | 6.45 | –
